Data: patent publication US5556744A, “Methods and compositions for diagnosing and treating certain HIV infected patients” (The Trustees of the University of Pennsylvania, priority 1994, dated 1996)

Legend:
Design in all cases: species or system human
[1] = test system: maternal HIV+ sera (antibodies); experiment: RIA / ELISA binding of maternal HIV+ sera to gp120 and gp41 peptides (Example 3); details: for Percent of the maternal serum samples that bound to the peptide: all 20 samples; for Correlation of peptide recognition with lack of vertical transmission: in words
Outline: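 Maternal sera, diluted 1:50 and 1:500, were bound overnight at 4°C to peptides immobilized at 10 μg/ml (pH 9.6 carbonate) and blocked with 1% BSA. Read-out was ¹²⁵I-labelled anti-human IgG counts or HRP-TMB OD450. Signal with peptide minus without was expressed relative to seronegative serum.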

[2] = test system: maternal serum samples (antibodies); experiment: ELISA peptide-binding of maternal sera, expanded peptide collection (Example 5); details: Example 5
From the text: The gp120 and gp41 peptides used in this experiment include peptides 60 [SEQ ID NO:9], 93 [SEQ ID NO:10], 94 [SEQ ID NO:1], 95 [SEQ ID NO:11], 96 [SEQ ID NO:12], 97 [SEQ ID NO:13], 59 [SEQ ID NO:14], 106 [SEQ ID NO:15], 107 [SEQ ID NO:[…]], 1029/33 [SEQ ID NO:2], p18p [SEQ ID NO:17], B138 [SEQ ID NO:3], 466 [SEQ ID NO:4], 497 [SEQ ID NO:18], 117 [SEQ ID NO:19], F560 [SEQ ID NO:20], 35 [SEQ ID NO:5], 120 [SEQ ID NO:21], 121 [SEQ ID NO:22], 123 [SEQ ID NO:23], 36 [SEQ ID NO:24], 40 [SEQ ID NO:25], 41 [SEQ ID NO:26], 649 [SEQ ID NO:6], 53 [SEQ ID NO:7], 55 [SEQ ID NO:27], 128 [SEQ ID NO:28], 129 [SEQ ID NO:29], 132 [SEQ ID NO:30], 57 [SEQ ID NO:8], and 1103/55 [SEQ ID NO:31] from Table 2. These peptides were synthesized based on the same HIV IIIB isolate as were the peptides of Table 2. Alternative designations for these peptides are provided in brackets.
Each of the peptides was at least 85% pure, making them suitable for ELISA analyses. The average length of these peptides was 18 amino acid residues, which allows for a certain degree of local flexibility and conformational folding, thus facilitating detection of antibody species with reactivities to shaped structures.
The maternal serum samples were obtained from the Mothers/Infants Cohort Study described in Example 1. For the ELISA peptide-binding analyses performed essentially as described in Example 3, maternal serum samples were diluted to 1:50 or 1:500 with blocking buffer (1% bovine serum albumin in phosphate-buffered saline containing 0.05% Tween 20). Binding was measured using 10 μg/mL peptide per well and was considered positive if the experimental/control OD450nm ratio was ≥2. Normal (HIV seronegative) human sera were used as controls.

[3] = test system: maternal sera (antibodies); experiment: ELISA peptide-binding of maternal sera (Example 6); details: for Number of Non-Transmitters which bound to peptide / Percent of Non-Transmitters which bound to peptide: N = 12; for Number of Transmitters which bound to peptide / Percent of Transmitters which bound to peptide: N = 4
Outline: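 HIV-1 envelope peptides averaging 16 amino acids, covering external and transmembrane glycoprotein, were probed by ELISA. Third-trimester maternal sera, classed as transmitter or non-transmitter by child diagnosis, were each run on at least 40 peptides. Values give percent of sera binding a peptide.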

[4] = Serum No. 1, Non-Transmission Group
[5] = Serum No. 2, Non-Transmission Group
[6] = Serum No. 3, Non-Transmission Group
[7] = Serum No. 4, Transmission Group
[8] = Serum No. 5, Transmission Group
[9] = Serum No. 6, Non-Transmission Group
[10] = Serum No. 7, Non-Transmission Group
[11] = Serum No. 8, Non-Transmission Group
[12] = Serum No. 9, Non-Transmission Group
[13] = Serum No. 10, Transmission Group
[14] = Serum No. 11, Non-Transmission Group
[15] = Serum No. 12, Non-Transmission Group
[16] = Serum No. 13, Transmission Group
[17] = Serum No. 14, Transmission Group
[18] = Serum No. 15, Transmission Group
[19] = Serum No. 16, Non-Transmission Group
[20] = Serum No. 17, Non-Transmission Group
[21] = Serum No. 18, Non-Transmission Group
[22] = Serum No. 19, Transmission Group
[23] = Serum No. 20, Non-Transmission Group

| Sequence | Binding of maternal HIV+ serum to peptide (sera/NHS ratio) [1, 4] | Binding of maternal HIV+ serum to peptide (sera/NHS ratio) [1, 5] | Binding of maternal HIV+ serum to peptide (sera/NHS ratio) [1, 6] | Binding of maternal HIV+ serum to peptide (sera/NHS ratio) [1, 7] | Binding of maternal HIV+ serum to peptide (sera/NHS ratio) [1, 8] | Binding of maternal HIV+ serum to peptide (sera/NHS ratio) [1, 9] | Binding of maternal HIV+ serum to peptide (sera/NHS ratio) [1, 10] | Binding of maternal HIV+ serum to peptide (sera/NHS ratio) [1, 11] | Binding of maternal HIV+ serum to peptide (sera/NHS ratio) [1, 12] | Binding of maternal HIV+ serum to peptide (sera/NHS ratio) [1, 13] | Binding of maternal HIV+ serum to peptide (sera/NHS ratio) [1, 14] | Binding of maternal HIV+ serum to peptide (sera/NHS ratio) [1, 15] | Binding of maternal HIV+ serum to peptide (sera/NHS ratio) [1, 16] | Binding of maternal HIV+ serum to peptide (sera/NHS ratio) [1, 17] | Binding of maternal HIV+ serum to peptide (sera/NHS ratio) [1, 18] | Binding of maternal HIV+ serum to peptide (sera/NHS ratio) [1, 19] | Binding of maternal HIV+ serum to peptide (sera/NHS ratio) [1, 20] | Binding of maternal HIV+ serum to peptide (sera/NHS ratio) [1, 21] | Binding of maternal HIV+ serum to peptide (sera/NHS ratio) [1, 22] | Binding of maternal HIV+ serum to peptide (sera/NHS ratio) [1, 23] | further results |
| --- | --- | --- | --- | --- | --- | --- | --- | --- | --- | --- | --- | --- | --- | --- | --- | --- | --- | --- | --- | --- | --- |
| NATAIAVAEGTDRVIEVVQGAYRAI [1103/55] | - (specific OD450 or cpm of sera sample binding to peptide divided by the specific OD450 or cpm of NHS sample binding to peptide, which value is less than 2) | ++ (which value is greater than 3) | - (specific OD450 or cpm of sera sample binding to peptide divided by the specific OD450 or cpm of NHS sample binding to peptide, which value is less than 2) | ++ (which value is greater than 3) | - (specific OD450 or cpm of sera sample binding to peptide divided by the specific OD450 or cpm of NHS sample binding to peptide, which value is less than 2) | ++ (which value is greater than 3) | ++ (which value is greater than 3) | ++ (which value is greater than 3) | - (specific OD450 or cpm of sera sample binding to peptide divided by the specific OD450 or cpm of NHS sample binding to peptide, which value is less than 2) | - (specific OD450 or cpm of sera sample binding to peptide divided by the specific OD450 or cpm of NHS sample binding to peptide, which value is less than 2) | - (specific OD450 or cpm of sera sample binding to peptide divided by the specific OD450 or cpm of NHS sample binding to peptide, which value is less than 2) | ++ (which value is greater than 3) | - (specific OD450 or cpm of sera sample binding to peptide divided by the specific OD450 or cpm of NHS sample binding to peptide, which value is less than 2) | ++ (which value is greater than 3) | - (specific OD450 or cpm of sera sample binding to peptide divided by the specific OD450 or cpm of NHS sample binding to peptide, which value is less than 2) | - (specific OD450 or cpm of sera sample binding to peptide divided by the specific OD450 or cpm of NHS sample binding to peptide, which value is less than 2) | ++ (which value is greater than 3) | ++ (which value is greater than 3) | - (specific OD450 or cpm of sera sample binding to peptide divided by the specific OD450 or cpm of NHS sample binding to peptide, which value is less than 2) | - (specific OD450 or cpm of sera sample binding to peptide divided by the specific OD450 or cpm of NHS sample binding to peptide, which value is less than 2) | Percent of the maternal serum samples that bound to the peptide [1]: 45%; Binding / reactivity of maternal sera to peptide (in words) [2]: recognized by the transmission group; Number of Non-Transmitters which bound to peptide [3]: 0; Percent of Non-Transmitters which bound to peptide [3]: 0%; Number of Transmitters which bound to peptide [3]: 0; Percent of Transmitters which bound to peptide [3]: 0% |
| CQNQQEKNEQELLEL [Peptide 649] | ++ (which value is greater than 3) | + (which value is between 2 to 3) | + (which value is between 2 to 3) | + (which value is between 2 to 3) | - (specific OD450 or cpm of sera sample binding to peptide divided by the specific OD450 or cpm of NHS sample binding to peptide, which value is less than 2) | ++ (which value is greater than 3) | ++ (which value is greater than 3) | ++ (which value is greater than 3) | - (specific OD450 or cpm of sera sample binding to peptide divided by the specific OD450 or cpm of NHS sample binding to peptide, which value is less than 2) | - (specific OD450 or cpm of sera sample binding to peptide divided by the specific OD450 or cpm of NHS sample binding to peptide, which value is less than 2) | ++ (which value is greater than 3) | ++ (which value is greater than 3) | - (specific OD450 or cpm of sera sample binding to peptide divided by the specific OD450 or cpm of NHS sample binding to peptide, which value is less than 2) | + (which value is between 2 to 3) | + (which value is between 2 to 3) | - (specific OD450 or cpm of sera sample binding to peptide divided by the specific OD450 or cpm of NHS sample binding to peptide, which value is less than 2) | + (which value is between 2 to 3) | + (which value is between 2 to 3) | - (specific OD450 or cpm of sera sample binding to peptide divided by the specific OD450 or cpm of NHS sample binding to peptide, which value is less than 2) | - (specific OD450 or cpm of sera sample binding to peptide divided by the specific OD450 or cpm of NHS sample binding to peptide, which value is less than 2) | Difference in binding of samples from transmission vs non-transmission group (Spearman rank-order correlation) ([1]; Example 3): significant statistical difference; Percent of the maternal serum samples that bound to the peptide [1]: 70%; Correlation of peptide recognition with lack of vertical transmission [1]: correlated with non-transmission status; Correlation of peptide recognition with lack of vertical transmission ([1]; listed as SEQ ID NO: 6): clearly correlated to non-transmission status; Binding / reactivity of maternal sera to peptide (in words) [2]: recognized by the transmission group; Number of Non-Transmitters which bound to peptide [3]: 7; Percent of Non-Transmitters which bound to peptide [3]: 43.8%; Number of Transmitters which bound to peptide [3]: 2; Percent of Transmitters which bound to peptide [3]: 50% |
